What was measured:
PD-L1 [1] = assay: PD-L1 expression (RNA and protein) after HDAC inhibitor treatment in colorectal cell lines; type: cell-based, human, mouse; settings: for PD-L1 expression in MSS compared with MSI colorectal cell lines: MSS compared with MSI colorectal cell lines (summary statement); for PD-L1 expression upon HDAC inhibitor treatment, MSS cell lines: SW620, LS513, and CT26, IC50 and ½ IC50, 48 hours, HDAC3 inhibitor compared with HDAC6 and HDAC8 (FIG. 2), HDAC8 inhibitor concentration-dependent (FIG. 6)
Procedure: (§1) The HDAC3 inhibitor experiment was conducted by harvesting cells 48 hours after the treatment at each inhibitor concentration and obtaining RNA and proteins. RGFP966 (S7229) purchased from SellekChem was used as an HDAC3 inhibitor. Specifically, SW620, LS513, DLD-1, CT26, and MC38 were individually cultured, and the experiments were conducted using the IC50 and ½ IC50 concentration on the basis of the previously determined IC50 concentration. RNA and protein samples were collected 48 hours after RGFP966 treatment. The RNA samples were isolated using the TRIzol, isopropanol, and chloroform, and the protein samples were collected by lysis with a lysis buffer (Roche, 4719956001). RNA was synthesized into cDNA using a cDNA synthesis kit (Bioneer, K-2044-B), and real-time PCR was performed using a method according to SYBR (Applied Biosystems, 4367659). Proteins were quantified using the Bradford assay (Bio-Rad, 50000006), and subjected to loading, transfer, blocking (3% skim milk; BD, 232100), primary antibody (24 h, 4 °C), and secondary antibody sequentially, thereby developing PD-L1.
The HDAC6 inhibitor experiment was conducted by the same method as in the HDAC3 inhibitor experiment of Experimental Example 3, and Nexturastat A HDAC6 selective inhibitor purchased from SellekChem was used as an HDAC6 inhibitor.
The HDAC8 inhibitor experiment was conducted by the same method as in the HDAC3 inhibitor experiment of Experimental Example 3, and PCI-34051 HDAC8 selective inhibitor purchased from SellekChem was used as an HDAC8 inhibitor.
The HDAC6 and HDAC8 inhibitor experiment was conducted by harvesting cells 48 hours after the treatment and then obtaining RNA and proteins.

PD-L1 [2] = assay: PD-L1 expression after HDAC3 inhibitor treatment in mouse cells; type: cell-based; settings: IC50 and ½ IC50, 48 hours, FIG. 2
Procedure: as §1

PD-L1 [3] = assay: PD-L1 expression by HDAC6 inhibitor, MSI versus MSS colorectal cancer cell lines; type: cell-based; settings: IC50 and half-IC50; MSI DLD-1, HCT116, MC38; MSS SW620, HT29, CT26; FIG. 15
Procedure: (§2) The IC50 values of the HDAC6 inhibitor (Nexturastat A) in three MSI colorectal cancer cell lines (DLD-1, HCT116, and MC38) and three MSS colorectal cancer cell lines (SW620, HT29, and CT26) were determined. The cells were then treated with the inhibitor at the IC50 and half-IC50 concentrations (concentration corresponding to ½ of the IC50 value), and the expression levels of the immune checkpoint proteins PD-L1 and B7H3 were measured.

B7H3 = B7H3 expression by HDAC6 inhibitor, MSI versus MSS colorectal cancer cell lines; type: cell-based; settings: IC50 and half-IC50; MSI DLD-1, HCT116, MC38; MSS SW620, HT29, CT26; FIG. 15
Procedure: as §2

[4] = Body weight of mice, HDAC6 inhibitor animal experiment; type: in vivo, BALB/C mice; settings: HDAC6i 20 mpk i.p. daily; FIG. 9D
Procedure: The animal experiment using an HDAC6 inhibitor was conducted using a total of three groups, a control group (control), an HDAC6i (Next A) group, and an HDAC6i (Next A)+anti-PD-L1 group. Nexturastat A (SellekChem) was used as HDAC6i (HDAC6 inhibitor), and #BE0101 (Bioxcell) was used as an anti-PD-L1 antibody. CT26 (1×10^6) cells and BALB/C mice were used. Three mice for the control group, three mice for the HDAC6i group, and four mice for the HDAC6i+anti-PD-L1 group were used.
• HDAC6i group: HDAC6i 20 mpk (mg/kg) intraperitoneally injected daily • HDAC6i+anti-PD-L1 group: HDAC6i 20 mpk intraperitoneally injected every day and anti-PD-L1 antibody 10 mpk intraperitoneally injected three times per week.

CT26 tumor = assay: CD8 T cell-dependent CT26 tumor growth suppression with anti-CD8a pre-treatment; type: in vivo, BALB/C mice; settings: concluded from anti-CD8a blocking
Procedure: To examine the hypothesis that an HDAC6 inhibitor suppresses CT26 tumor growth in a CD8 T cell-dependent manner, an experiment on the combination with anti-CD8a antibody was further conducted by pre-treatment with anti-CD8a antibody, which binds to CD8 T cells. The experiment was conducted by intraperitoneally administering an anti-CD8a antibody to animals from 3 days before tumor cell injection at 3-day intervals to inhibit CD8 T cells and administering an HDAC6 inhibitor and an anti-PD-L1 antibody.
Specifically, the experiment was conducted on a total of four groups: a control group, an anti-CD8a group, an HDAC6i (Next A)+anti-PD-L1 group, and an HDAC6i (Next A)+anti-PD-L1+anti-CD8a group. CT26 cells (1×10^6) for a cell line, Nexturastat A (SellekChem) as HDAC6i (HDAC6 inhibitor), #BE0101 (Bioxcell) as an anti-PD-L1 antibody, and #BE017 (Bioxcell) as an anti-CD8a antibody were used. BALB/C mice were used. In addition, 6 mice for the control group, 6 mice for the anti-CD8a group, 6 mice for the HDAC6i (Next A)+anti-PD-L1 group, and 8 mice for the HDAC6i (Next A)+anti-PD-L1+anti-CD8a group were used. […]

SMILES | PD-L1 expression in MSS compared with MSI colorectal cell lines (PD-L1 [1]) | PD-L1 expression upon HDAC inhibitor treatment, MSS cell lines (PD-L1 [1]) | PD-L1 expression upon HDAC3 inhibitor treatment, mouse cells (PD-L1 [2]) | PD-L1 expression at the RNA and protein levels upon HDAC6 inhibitor treatment (PD-L1 [1]; MSS cell lines SW620, LS513, HT29, and CT26, depending on the concentration, 48 hours, FIG. 4) | PD-L1 expression in MSS compared with MSI cell line (PD-L1 [3]) | B7H3 expression in MSS compared with MSI cell line (B7H3) | body weight of the animals [4] | CD8 T cell dependence of CT26 tumor growth suppression (CT26 tumor)
COc1ccc(Cn2ccc3ccc(C(=O)NO)cc32)cc1 [PCI-34051] | further up-regulated | increase in PD-L1 expression at the RNA and protein levels |  |  |  |  |  | 
Nc1cc(F)ccc1NC(=O)/C=C/c1cnn(C/C=C/c2ccccc2)c1 [RGFP966] |  | small increases | decrease tendency |  |  |  |  | 
CCCCN(Cc1ccc(C(=O)NO)cc1)C(=O)Nc1ccccc1 [Nexturastat A] | further up-regulated |  |  | increase in PD-L1 expression at the RNA and protein levels | distinct increase tendencies | distinct increase tendencies | not reduced | suppressed CT26 tumor growth in a CD8 T cell-dependent manner
